Test results reported in patent US20260184706A1, “PHENYLSULFONAMIDE DERIVATIVES, PREPARATION METHOD THEREFOR, AND PHARMACEUTICAL COMPOSITION FOR PREVENTION OR TREATMENT OF CANCER CONTAINING SAME AS ACTIVE INGREDIENT” (Korea Research Institute of Chemical Technology, priority 2022, published 2026).

target: recombinant human GCN2 protein (Homo sapiens, UniProt Q9P2K8); assay: General control nonderepressible 2 (GCN2) inhibitory capacity, 33P-ATP filter assay; format: biochemical; conditions: recombinant human GCN2, 70 uM [gamma-33P-ATP], 40 minutes, room temperature
Sequence (Q9P2K8 whole entry): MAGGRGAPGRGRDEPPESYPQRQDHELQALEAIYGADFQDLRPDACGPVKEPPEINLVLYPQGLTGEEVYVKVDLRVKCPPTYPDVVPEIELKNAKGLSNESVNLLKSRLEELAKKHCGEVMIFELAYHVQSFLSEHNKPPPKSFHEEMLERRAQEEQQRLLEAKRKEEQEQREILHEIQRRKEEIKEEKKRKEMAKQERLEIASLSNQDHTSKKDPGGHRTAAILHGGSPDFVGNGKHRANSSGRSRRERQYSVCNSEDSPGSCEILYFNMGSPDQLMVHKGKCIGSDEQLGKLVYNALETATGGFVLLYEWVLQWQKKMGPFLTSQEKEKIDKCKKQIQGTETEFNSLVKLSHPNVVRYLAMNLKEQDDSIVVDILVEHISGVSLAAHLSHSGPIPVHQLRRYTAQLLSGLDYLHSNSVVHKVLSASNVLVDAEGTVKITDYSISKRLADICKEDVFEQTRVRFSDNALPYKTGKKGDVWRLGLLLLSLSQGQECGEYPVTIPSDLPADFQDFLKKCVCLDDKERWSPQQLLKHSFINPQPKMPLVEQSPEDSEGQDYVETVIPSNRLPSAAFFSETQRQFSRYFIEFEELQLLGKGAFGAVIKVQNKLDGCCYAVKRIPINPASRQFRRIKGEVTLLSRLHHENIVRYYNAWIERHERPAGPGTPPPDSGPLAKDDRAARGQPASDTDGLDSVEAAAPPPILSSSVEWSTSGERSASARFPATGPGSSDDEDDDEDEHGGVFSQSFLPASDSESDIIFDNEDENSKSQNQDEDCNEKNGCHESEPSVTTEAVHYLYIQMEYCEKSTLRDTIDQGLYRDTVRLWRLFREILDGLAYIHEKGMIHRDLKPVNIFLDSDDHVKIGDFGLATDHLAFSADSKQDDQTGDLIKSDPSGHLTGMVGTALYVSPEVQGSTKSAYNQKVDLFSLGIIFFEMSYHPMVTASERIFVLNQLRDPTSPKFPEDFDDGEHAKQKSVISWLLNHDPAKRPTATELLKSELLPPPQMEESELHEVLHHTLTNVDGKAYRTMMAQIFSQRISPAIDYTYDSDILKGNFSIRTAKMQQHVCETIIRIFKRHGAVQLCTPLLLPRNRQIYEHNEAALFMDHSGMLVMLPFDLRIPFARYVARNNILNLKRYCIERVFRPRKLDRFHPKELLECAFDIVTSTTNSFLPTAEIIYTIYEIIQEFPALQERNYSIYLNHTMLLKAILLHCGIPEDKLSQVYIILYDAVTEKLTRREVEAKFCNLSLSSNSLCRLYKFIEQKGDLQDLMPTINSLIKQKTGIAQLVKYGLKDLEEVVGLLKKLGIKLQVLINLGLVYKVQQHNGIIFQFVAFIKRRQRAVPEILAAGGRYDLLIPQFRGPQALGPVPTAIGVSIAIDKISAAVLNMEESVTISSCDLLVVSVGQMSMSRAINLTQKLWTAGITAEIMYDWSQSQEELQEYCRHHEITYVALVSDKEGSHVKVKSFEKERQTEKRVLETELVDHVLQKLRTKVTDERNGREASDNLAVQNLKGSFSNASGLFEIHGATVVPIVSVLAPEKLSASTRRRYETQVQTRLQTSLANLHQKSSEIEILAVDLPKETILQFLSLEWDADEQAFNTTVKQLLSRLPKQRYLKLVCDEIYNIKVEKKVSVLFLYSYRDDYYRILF
Procedure: <Experimental Example 2> Evaluation of General Control Nonderepressible 2 (GCN2) Inhibitory Capacity
A recombinant human GCN2 protein was mixed with the compound in a reaction solution (20 mM Tris/HCl pH8.5, 0.2 mM EDTA, 0.1% Tween, 100 mM NaCl, 300 μM RSRSRSRSRSRSRSR, 10 mM Magnesium acetate, 70 uM [gamma-33P-ATP]) and reacted at room temperature for 40 minutes. Then, the reaction was terminated by adding phosphoric acid (0.5%) to the reaction mixture, and 10 ul of the reaction solution was dropped onto a P30 filter. The filter was washed four times in a 0.425% phosphoric acid solution for 4 minutes, then washed once more in methanol, dried, and the GCN2 activity was measured by scintillation counting. […] The compound was diluted by 1/3 from the highest concentration of 1 uM and treated with a total of 9 concentrations to evaluate the degree of inhibition.

Compound	IC50
COc1ncc(Cl)cc1S(=O)(=O)Nc1ccc(F)c(-n2cc(C)c3nc(N)ncc3c2=O)c1F [Example 21, N-(3-(2-amino-8-methyl-5-oxopirido[4,3-d]pyrimidin-6(5H)-yl)-2,4-difluorophenyl)-5-chloro-2-methoxypyridine-3-sulfonamide]	< 100 nM
COc1ncc(Cl)cc1S(=O)(=O)Nc1ccc(F)c(-n2cc(CO)c3nc(N)ncc3c2=O)c1F [Example 23, N-(3-(2-amino-8-hydroxymethyl)-5-oxopirido[4,3-d]pyrimidin-6(5H)-2,4-difluorophenyl)-5-chloro-2-methoxypyridine-3-sulfonamide]	100 to 300 nM
Nc1ncc2c(=O)n(-c3c(F)ccc(NS(=O)(=O)c4cc(Cl)ccc4Cl)c3F)ccc2n1 [Example 24, N-(3-(2-amino-5-oxopirido[4,3-d]pyrimidin-6(5H)-yl)-2,4-difluorophenyl)-2,5-dichlorobenzenesulfonamide]	< 100 nM
Cc1nn(C)c(Cl)c1S(=O)(=O)Nc1ccc(F)c(-n2ccc3nc(N)ncc3c2=O)c1F [Example 30, N-(3-(2-amino-5-oxopirido[4,3-d]pyrimidin-6(5H)-yl)-2,4-difluorophenyl)-5-chloro-1,3-dimethyl-1H-pyrazole-4-sulfonamide]	100 to 300 nM
Nc1ncc2c(=O)n(-c3c(F)ccc(NS(=O)(=O)c4ccc(Cl)s4)c3F)ccc2n1 [Example 31, N-(3-(2-amino-5-oxopirido[4,3-d]pyrimidin-6(5H)-yl)-2,4-difluorophenyl)-5-chlorothiophene-2-sulfonamide]	100 to 300 nM
COc1ncc(Cl)cc1S(=O)(=O)Nc1ccc(F)c(-n2cc(Br)c3nc(N)ncc3c2=O)c1F [Example 33, N-(3-(2-amino-8-bromo-5-oxopirido[4,3-d]pyrimidin-6(5H)-yl)-2,4-difluorophenyl)-5-chloro-2-methoxypyridine-3-sulfonamide]	> 1000 nM
Cc1nn(-c2c(F)ccc(NS(=O)(=O)c3cc(Cl)ccc3Cl)c2F)c(=O)c2cnc(N)nc12 [Example 34, N-(3-(2-amino-8-methyl-5-oxopyrimido[4,5-d]pyridazine-6(5H)-yl)-2,4-difluorophenyl)-2,5-dichlorobenzenesulfonamide]	< 100 nM
Cc1nn(-c2c(F)ccc(NS(=O)(=O)c3cn(C)nc3C(F)(F)F)c2F)c(=O)c2cnc(N)nc12 [Example 35, N-(3-(2-amino-8-methyl-5-oxopyrimido[4,5-d]pyridazine-6(5H)-yl)-2,4-difluorophenyl)-1-methyl-3-(trifluoromethyl)-1H-pyrazole-4-sulfonamide]	> 1000 nM
Cc1nn(-c2c(F)ccc(NS(=O)(=O)c3cc(Cl)cc(CO)c3Cl)c2F)c(=O)c2cnc(N)nc12 [Example 37, N-(3-(2-amino-8-methyl-5-oxopyrimido[4,5-d]pyridazine-6(5H)-yl)-2,4-difluorophenyl)-2,5-dichloro-3-(hydroxymethyl)benzene sulfonamide]	> 1000 nM
CN1CN(c2c(F)ccc(NS(=O)(=O)c3cc(Cl)ccc3Cl)c2F)C(=O)c2cnc(N)nc21 [Example 39, N-(3-(7-amino-1-methyl-4-oxo-1,4-dihydropyrimido[4,5-d]pyrimidin-3(2H)-yl)-2,4-difluorophenyl)-2,5-dichlorobenzenesulfonamide]	100 to 300 nM
COc1ncc(Cl)cc1S(=O)(=O)Nc1ccc(F)c(N2CN(C)c3nc(N)ncc3C2=O)c1F [Example 40, N-(3-(7-amino-1-methyl-4-oxo-1,4-dihydropyrimido[4,5-d]pyrimidin-3(2H)-yl)-2,4-difluorophenyl)-5-chloro-2-methoxypyridine-3-sulfonamide]	100 to 300 nM
CN1CN(c2c(F)ccc(NS(=O)(=O)c3cccc4ccccc34)c2F)C(=O)c2cnc(N)nc21 [Example 41, N-(3-(7-amino-1-methyl-4-oxo-1,4-dihydropyrimido[4,5-d]pyrimidin-3(2H)-yl)-2,4-difluorophenyl)naphthalene-1-sulfonamide]	100 to 300 nM
Cn1c(=O)n(-c2c(F)ccc(NS(=O)(=O)c3cc(Cl)ccc3Cl)c2F)c(=O)c2cnc(N)nc21 [Example 42, N-(3-(7-amino-1-methyl-2,4-dioxo-1,4-dihydropyrimido[4,5-d]pyrimidin-3(2H)-yl)-2,4-difluorophenyl)-2,5-dichlorobenzenesulfonamide]	100 to 300 nM
COc1ncc(C#N)cc1S(=O)(=O)Nc1ccc(F)c(-n2c(=O)c3cnc(N)nc3n(C)c2=O)c1F [Example 47, N-(3-(7-amino-1-methyl-2,4-dioxo-1,4-dihydropyrimido[4,5-d]pyrimidin-3(2H)-yl)-2,4-difluorophenyl)-5-cyano-2-methoxypyridine-3-sulfonamide]	< 100 nM
Cn1c(=O)n(-c2c(F)ccc(NS(=O)(=O)c3cc(C(F)(F)F)ccc3Cl)c2F)c(=O)c2cnc(N)nc21 [Example 49, N-(3-(7-amino-1-methyl-2,4-dioxo-1,2-dihydropyrimido[4,5-d]pyrimidin-3(4H)-yl)-2,4-difluorophenyl)-2-chloro-5-(trifluoromethyl)benzenesulfonamide]	100 to 300 nM
Cn1c(=O)n(-c2c(F)ccc(NS(=O)(=O)c3ccc(Cl)s3)c2F)c(=O)c2cnc(N)nc21 [Example 50, N-(3-(7-amino-1-methyl-2,4-dioxo-1,4-dihydropyrimido[4,5-d]pyrimidin-3(2H)-yl)-2,4-difluorophenyl)-5-chlorothiophene-2-sulfonamide]	< 100 nM
Cc1ccc(Cl)cc1S(=O)(=O)Nc1ccc(F)c(-n2c(=O)c3cnc(N)nc3n(C)c2=O)c1F [Example 52, N-(3-(7-amino-1-methyl-2,4-dioxo-1,4-dihydropyrimido[4,5-d]pyrimidin-3(2H)-yl)-2,4-difluorophenyl)-5-chloro-2-methylbenzenesulfonamide]	< 100 nM
CN1C(=O)Cc2cc(S(=O)(=O)Nc3ccc(F)c(-n4c(=O)c5cnc(N)nc5n(C)c4=O)c3F)ccc21 [Example 53, N-(3-(7-amino-1-methyl-2,4-dioxo-1,4-dihydropyrimido[4,5-d]pyrimidin-3(2H)-yl)-2,4-difluorophenyl)-1-methyl-2-oxoindoline-5-sulfonamide]	> 1000 nM
Cn1c(=O)n(-c2c(F)ccc(NS(=O)(=O)c3cc(F)ccc3F)c2F)c(=O)c2cnc(N)nc21 [Example 54, N-(3-(7-amino-1-methyl-2,4-dioxo-1,4-dihydropyrimido[4,5-d]pyrimidin-3(2H)-yl)-2,4-difluorophenyl)-2,5-difluorobenzenesulfonamide]	100 to 300 nM
Cn1c(=O)n(-c2c(F)ccc(NS(=O)(=O)c3ccc(Cl)cc3Cl)c2F)c(=O)c2cnc(N)nc21 [Example 55, N-(3-(7-amino-1-methyl-2,4-dioxo-1,2-dihydropyrimido[4,5-d]pyrimidin-3(4H)-yl)-2,4-difluorophenyl)-2,4-dichlorobenzenesulfonamide]	100 to 300 nM
Cn1cc(S(=O)(=O)Nc2ccc(F)c(-n3c(=O)c4cnc(N)nc4n(C)c3=O)c2F)cn1 [Example 56, N-(3-(7-amino-1-methyl-2,4-dioxo-1,4-dihydropyrimido[4,5-d]pyrimidin-3(2H)-yl)-2,4-difluorophenyl)-1-methyl-1H-pyrazole-4-sulfonamide]	> 1000 nM
CNc1ncc2c(=O)n(-c3c(F)ccc(NS(=O)(=O)c4cc(Cl)cnc4OC)c3F)c(=O)n(C)c2n1 [Example 58, 5-chloro-N-(2,4-difluoro-3-(1-methyl-7-(methylamino)-2,4-dioxo-1,4-dihydropyrimido[4,5-d]pyrimidin-3(2H)-yl)phenyl)-2-methoxypyridine-3-sulfonamide]	100 to 300 nM
Nc1ncc2c(n1)N(C1CC1)CN(c1c(F)ccc(NS(=O)(=O)c3cc(Cl)ccc3Cl)c1F)C2=O [Example 59, N-(3-(7-amino-1-cyclopropyl-4-oxo-1,4-dihydropyrimido[4,5-d]pyrimidin-3(2H)-yl)-2,4-difluorophenyl)-2,5-dichlorobenzenesulfonamide]	100 to 300 nM
COc1ncc(Cl)cc1S(=O)(=O)Nc1ccc(F)c(N2CN(C3CC3)c3nc(N)ncc3C2=O)c1F [Example 60, N-(3-(7-amino-1-cyclopropyl-4-oxo-1,4-dihydropyrimido[4,5-d]pyrimidin-3(2H)-yl)-2,4-difluorophenyl)-5-chloro-2-methoxypyridine-3-sulfonamide]	100 to 300 nM
Nc1ncc2c(n1)N(C1CC1)CN(c1c(F)ccc(NS(=O)(=O)c3cccc4ccccc34)c1F)C2=O [Example 61, N-(3-(7-amino-1-cyclopropyl-4-oxo-1,4-dihydropyrimido[4,5-d]pyrimidin-3(2H)-yl)-2,4-difluorophenyl)naphthalene-1-sulfonamide]	100 to 300 nM
Cc1nn(C)c(Cl)c1S(=O)(=O)Nc1ccc(F)c(N2CN(C3CC3)c3nc(N)ncc3C2=O)c1F [Example 62, N-(3-(7-amino-1-cyclopropyl-4-oxo-1,4-dihydropyrimido[4,5-d]pyrimidin-3(2H)-yl)-2,4-difluorophenyl)-5-chloro-1,3-dimethyl-1H-pyrazole-4-sulfonamide]	> 1000 nM
Cc1nn(C)c(Cl)c1S(=O)(=O)Nc1ccc(F)c(-n2c(=O)c3cnc(N)nc3n(C3CC3)c2=O)c1F [Example 66, N-(3-(7-amino-1-cyclopropyl-2,4-dioxo-1,4-dihydropyrimido[4,5-d]pyrimidin-3(2H)-yl)-2,4-difluorophenyl)-5-chloro-1,3-dimethyl-1H-pyrazole-4-sulfonamide]	300 to 1000 nM
